Results as given in PMC10269678, “Identification of Fungus-Derived Natural Products as New Antigiardial Scaffolds” (Microbiology Spectrum, 2023).
Where two headings read alike, the source gives them in different places.

Columns and labels:
G. lamblia strain CBG99 [1] = assay: G. lamblia CBG99 luciferase reporter trophozoite growth assay; format: cell-based, Giardia lamblia; settings: for inhibition at 10 µM: read-out: % inhibition at 10 μM; for % inhibition at 10 μM: pNP tested at 10 μM, G. lamblia growth, primary screen; for times more potent than metronidazole: relative to metronidazole EC50 of 5 μM
Source text: For in vitro Giardia assays, we used a click beetle green (CBG99) luciferase-based reporter system that was developed for quantitative bioluminescence readouts of growth in trophozoites ([13][–][15]). The CBG99 reporter gene is under the control of the glutamate dehydrogenase promoter, which is highly expressed in the G. lamblia trophozoite stage, making it useful for monitoring growth even in mouse infection models ([15]). The compound library was obtained from the Natural Products Discovery Group (NPDG) at the University of Oklahoma ([16]). A combination of 755 purified natural products (pNPs) and 1,056 fungal extracts were screened against G. lamblia strain CBG99. Hits were defined as samples that caused ≥50% growth inhibition activity at 10 μM (pNPs) or 5 μg/mL (extracts). […] Only 2 were considered false positives (EC50 > 10 μM) (Table 2).

G. lamblia strain CBG99 [2] = system: G. lamblia strain CBG99; parameters: method as in PMID 26324270; settings: cited from earlier work
[3] = Giardia duodenalis, read-out: EC50 ± SD (μM)
[4] = G. lamblia trophozoite growth in vitro, Table 2, read-out: EC50 ± SD
[5] = Giardia duodenalis, read-out: EC50 against G. lamblia trophozoite

CC(=O)C1=C(O)[C@@H]2[C@H]3c4c[nH]c5cccc(c45)C[C@H]3C(C)(C)N2C1=O [NPDG 170027, Cyclopiazonic acid] gave an inhibition at 10 µM (G. lamblia strain CBG99 [1]; Giardia duodenalis) of 81% and an EC50 (G. lamblia strain CBG99 [1]; [3]) of 1.3 ± 0.71 µM.
In the case of Perfraglin A [NPDG 120038], the EC50 (G. lamblia strain CBG99 [1]; [4]) is reported as over 10 µM and the “% inhibition at 10 μM” value (G. lamblia strain CBG99 [1]) is reported as 75%.
Compound C/C=C/C=C/C=C/C(=O)O[C@@H]1C=C2COC(=O)[C@]2(O)[C@@]2(C)CCCC(C)(C)[C@H]12 [NPDG 150125, RES-1149-2] has an inhibition at 10 µM (G. lamblia strain CBG99 [1]; Giardia duodenalis) of 88%, an EC50 (G. lamblia strain CBG99 [1]; [5]) of under 0.2 µM and an EC50 (G. lamblia strain CBG99 [1]; [3]) of 0.18 ± 0.11 µM. For the same compound, the “times more potent than metronidazole” value (G. lamblia strain CBG99 [1]) was over 25 times.
In the case of C[C@@H]1N[C@H]2N(C1=O)c1ccccc1[C@@]21C[C@@H]2C(=O)N[C@@](C)(O1)c1nc3ccccc3c(=O)n12 [NPDG 170098, Fumiquinazoline C], the EC50 (G. lamblia strain CBG99 [1]; [4]) is reported as 6.92 ± 8.5 µM and the “% inhibition at 10 μM” value (G. lamblia strain CBG99 [1]) is reported as 82%.
CC(=O)O[C@H]1C[C@@]2(C)[C@@H](CC[C@H]3[C@@]4(C)C=CC(=O)[C@@H](C)[C@@H]4[C@H](OC(C)=O)C(=O)[C@@]32C)/C1=C(\CCC=C(C)C)C(=O)O [NPDG 170028, Helvolic acid] gave an inhibition at 10 µM (G. lamblia strain CBG99 [1]; Giardia duodenalis) of 83% and an EC50 (G. lamblia strain CBG99 [1]; [3]) of 3.36 ± 0.14 µM.
In the case of CC(=O)OC(C)(C)[C@H]1O[C@H]2CC[C@@]3(C)[C@@](O)(CC[C@H]4Cc5c([nH]c6ccccc56)[C@@]43C)C2=CC1=O [NPDG 150113, 1′-O-acetylpaxilline], the EC50 (G. lamblia strain CBG99 [1]; [4]) is reported as 3.4 µM and the “% inhibition at 10 μM” value (G. lamblia strain CBG99 [1]) is reported as 82%.
CC(=O)ON1C2N(C(=O)C1(C)C)c1ccccc1C21CC(n2c(C(O)C(C)C)nc3ccccc3c2=O)C(=O)O1 (centres unmarked) [J36C, isotryptoquivaline] showed an EC50 (G. lamblia strain CBG99 [1]; Giardia duodenalis) of 0.84 µM.
With CC(C)=C1NC(=O)C(CC2(O)c3ccccc3N3C(=O)C(C)(C)NC32)n2c1nc1ccccc1c2=O (centres unmarked) [J16M, Quinadoline A] the EC50 (G. lamblia strain CBG99 [1]; Giardia duodenalis) was 3.29 µM.
CC1(C)C(=O)N2c3ccccc3C3(CC(n4cnc5ccccc5c4=O)C(=O)O3)C2N1O (centres unmarked) [J16L, Tryptoquivaline L] gave an EC50 (G. lamblia strain CBG99 [1]; Giardia duodenalis) of 7.15 µM.
COC(=O)C1=C[C@@H](O)[C@@H](O)[C@@H](O)[C@H]1N1C[C@H](O)[C@@H](OC(C)=O)[C@H]1Cc1ccc(OC)cc1 [NPDG 150029, Anisomycin 1-N-pericosine] gave an inhibition at 10 µM (G. lamblia strain CBG99 [1]; Giardia duodenalis) of 86% and an EC50 (G. lamblia strain CBG99 [1]; [3]) of 3.32 ± 0.01 µM.
Compound COC1=CC(=O)C[C@@H](C)[C@]12Oc1c(Cl)c(OC)cc(OC)c1C2=O [J16K, Griseofulvin] has an EC50 (G. lamblia strain CBG99 [1]; Giardia duodenalis) of 7.88 µM.
In the case of CO[C@@H]1[C@H](OC(=O)\C=C/C=C/C=C/C=C/C(=O)O)CC[C@]2(CO2)[C@H]1[C@@]1(C)O[C@@H]1CC=C(C)C [NPDG 150049, cis-Fumagillin], the inhibition at 10 µM (G. lamblia strain CBG99 [1]; Giardia duodenalis) is reported as 85%, the EC50 (G. lamblia strain CBG99 [1]; [5]) is reported as under 0.2 µM and the EC50 (G. lamblia strain CBG99 [1]; [3]) is reported as 0.03 ± 0.02 µM. For the same compound, the “times more potent than metronidazole” value (G. lamblia strain CBG99 [1]) was over 25 times.
In the case of C/C=C(\C)c1cc(OC)c(C)c2c1Oc1c(CO)c(O)cc(/C(C)=C/C(=O)O)c1C(=O)O2 [NPDG 150134, Auranticin A], the inhibition at 10 µM (G. lamblia strain CBG99 [1]; Giardia duodenalis) is reported as 89% and the EC50 (G. lamblia strain CBG99 [1]; [3]) is reported as 4.44 ± 3.02 µM.
For CC(C)C(=O)c1nc2ccccc2c(=O)n1C1CC2(OC1=O)c1ccccc1N1C(=O)C(C)(C)NC12 (centres unmarked) [J36B], the EC50 (G. lamblia strain CBG99 [1]; Giardia duodenalis) was 0.044 µM.
Compound COC1=CC(=O)c2c(O)c(C)c(CC(C)=O)c(O)c2C1=O [NPDG 160012, Javanicin] has an inhibition at 10 µM (G. lamblia strain CBG99 [1]; Giardia duodenalis) of 89% and an EC50 (G. lamblia strain CBG99 [1]; [3]) of 1.26 ± 1.01 µM.
COC12OC1(C13OC1(OC)C(=O)c1cc4cc(C)oc(=O)c4c(O)c1C3O)C(O)c1c(cc3cc(C)oc(=O)c3c1O)C2=O (centres unmarked) [J16R, Xanthoepocin] showed an EC50 (G. lamblia strain CBG99 [1]; Giardia duodenalis) of 0.146 µM.
For COC(=O)c1c(Sc2c(O)cc3oc4cc(C)cc(O)c4c(=O)c3c2C(=O)OC)c(O)cc(OC)c1C(=O)c1c(O)cc(C)cc1O [NPDG 150051, Dioschrin], the EC50 (G. lamblia strain CBG99 [1]; [4]) was 3.21 ± 0.61 µM and the “% inhibition at 10 μM” value (G. lamblia strain CBG99 [1]) was 82%.
Work on COC1C(OC(=O)C=CC=CC=CC=CC(=O)O)CCC(O)(CCl)C1C1(C)OC1CC=C(C)C (centres unmarked) [NPDG 150137] yielded an inhibition at 10 µM (G. lamblia strain CBG99 [1]; Giardia duodenalis) of 90%, an EC50 (G. lamblia strain CBG99 [1]; [5]) of under 0.2 µM and an EC50 (G. lamblia strain CBG99 [1]; [3]) of 0.006 µM. For the same compound, the “times more potent than metronidazole” value (G. lamblia strain CBG99 [1]) was over 25 times.
For C=C1CC[C@@H](OC(=O)/C=C/C=C/C=C/C=C/C(=O)O)[C@@H](OC)[C@H]1[C@@]1(C)O[C@@H]1CC=C(C)C [NPDG 150138, Sch 528647], the EC50 (G. lamblia strain CBG99 [1]; [4]) was 3.09 ± 0.16 µM and the “% inhibition at 10 μM” value (G. lamblia strain CBG99 [1]) was 88%.
For COC1=CC(=O)CC(C)C12Oc1cc(OC)cc(OC)c1C2=O (centres unmarked) [J16A, Dechlorogriseofulvin], the EC50 (G. lamblia strain CBG99 [1]; Giardia duodenalis, read-out: Giardia EC50 (μM)) was over 15 µM.
With N[C@H](C(=O)O)[C@@H]1CC(Cl)=NO1 [NPDG 120071, Acivicin] the inhibition at 10 µM (G. lamblia strain CBG99 [1]; Giardia duodenalis) was 85% and the EC50 (G. lamblia strain CBG99 [1]; [3]) was over 10 µM.
Compound CC(C)C1NC(=O)C(CC2(O)c3ccccc3N3C(=O)C(C)(C)NC32)n2c1nc1ccccc1c2=O (stereo not drawn) [J16E, epi-Fiscalin C] has an EC50 (G. lamblia strain CBG99 [1]; Giardia duodenalis) of 0.555 µM.
For CO[C@@H]1[C@H](OC(=O)/C=C/C=C/C=C/C=C/C(=O)O)CC[C@]2(CO2)[C@H]1[C@@]1(C)O[C@@H]1CC=C(C)C [NPDG 170035, Fumagillin], the inhibition at 10 µM (G. lamblia strain CBG99 [1]; Giardia duodenalis) was 88%, the EC50 (G. lamblia strain CBG99 [1]; [5]) was under 0.2 µM and the EC50 (G. lamblia strain CBG99 [1]; [3]) was 0.004 µM. For the same compound, the “times more potent than metronidazole” value (G. lamblia strain CBG99 [1]) was over 25 times.
In the case of Cc1ncc([N+](=O)[O-])n1CCO [metronidazole], the EC50 (G. lamblia strain CBG99 [2]) is listed as 5 µM.
